In ChEMBL document CHEMBL2021853, “Discovery of 1,2,4-triazine derivatives as adenosine A(2A) antagonists using structure based drug design” (J Med Chem, 2012):

What was measured:
[1] = target: T1, Adenosine receptor A1 (Homo sapiens, UniProt P30542)
T1 sequence (P30542 whole entry): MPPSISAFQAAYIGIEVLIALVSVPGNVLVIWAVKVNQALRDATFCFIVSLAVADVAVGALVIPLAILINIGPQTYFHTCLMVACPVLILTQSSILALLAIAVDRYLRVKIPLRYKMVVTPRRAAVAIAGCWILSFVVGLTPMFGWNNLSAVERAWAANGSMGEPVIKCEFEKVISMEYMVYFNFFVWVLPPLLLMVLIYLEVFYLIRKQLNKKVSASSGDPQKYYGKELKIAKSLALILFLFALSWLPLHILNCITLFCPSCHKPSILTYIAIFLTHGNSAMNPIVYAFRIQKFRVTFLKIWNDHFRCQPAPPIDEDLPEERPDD

[2] = system: Liver microsomes; test: Half life in rat liver microsomes at 1 uM
[3] = Kinetic solubility of the compound
[4] = system: Plasma; test: Plasma protein binding in rat at 10 uM after 6 hrs
[5] = Plasma clearance in rat at 1 mg/kg, iv; type: ADME, organism-based; set-up: dose 1 mg/kg, route intravenous
[6] = Volume of distribution at steady state in rat at 1 mg/kg, iv; type: ADME, organism-based; set-up: dose 1 mg/kg, route intravenous; settings: in vivo, read-out: Vdss
[7] = Terminal half life in rat at 1 mg/kg, iv; type: ADME, organism-based; set-up: dose 1 mg/kg, route intravenous; settings: in vivo, read-out: beta t1/2 (converted)
[8] = AUC (infinity) in rat at 1 mg/kg, iv; type: ADME, organism-based; set-up: dose 1 mg/kg, route intravenous, time infinity; settings: plasma
[9] = system: Nucleic Acid; test: Ratio of drug level in brain to plasma in rat at 1 mg/kg, iv at 0.5 hrs; type: ADME, organism-based; set-up: dose 1 mg/kg, route intravenous
[10] = Tmax in rat at 2 mg/kg, po; type: ADME, organism-based; set-up: dose 2 mg/kg, route oral; settings: in vivo
[11] = Cmax in rat at 2 mg/kg, po; type: ADME, organism-based; set-up: dose 2 mg/kg, route oral; settings: in vivo
[12] = Terminal half life in rat at 2 mg/kg, po; type: ADME, organism-based; set-up: dose 2 mg/kg, route oral; settings: in vivo, read-out: beta t1/2 (converted)
[13] = Oral bioavailability in rat at 2 mg/kg; type: ADME, organism-based; settings: in vivo
[14] = system: Rattus norvegicus; test: Reversal of haloperidol-induced catalepsy in po dosed Sprague-Dawley rat administered 30 mins post haloperidol-challenge measured after 1 hr; type: functional
[15] = system: Rattus norvegicus; test: Reversal of haloperidol-induced catalepsy in po dosed Sprague-Dawley rat administered 30 mins post haloperidol-challenge measured after 2 hrs; type: functional
[16] = target: T2, Adenosine receptor A3 (Homo sapiens) (UniProt P0DMS8); test: Antagonist activity at adenosine A3 receptor; type: functional
T2 sequence (whole entry): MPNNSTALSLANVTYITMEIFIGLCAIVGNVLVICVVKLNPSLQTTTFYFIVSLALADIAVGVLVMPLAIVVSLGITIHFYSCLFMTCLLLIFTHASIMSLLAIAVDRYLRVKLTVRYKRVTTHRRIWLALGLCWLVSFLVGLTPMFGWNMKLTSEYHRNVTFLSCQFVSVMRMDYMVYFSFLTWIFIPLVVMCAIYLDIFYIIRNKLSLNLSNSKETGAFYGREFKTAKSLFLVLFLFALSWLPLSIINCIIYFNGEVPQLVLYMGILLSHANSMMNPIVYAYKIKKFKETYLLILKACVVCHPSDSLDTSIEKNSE

[17] = target: T3, Adenosine receptor A2b (Homo sapiens, UniProt P29275); test: Inhibition of adenosine A2B receptor
T3 sequence (P29275 whole entry): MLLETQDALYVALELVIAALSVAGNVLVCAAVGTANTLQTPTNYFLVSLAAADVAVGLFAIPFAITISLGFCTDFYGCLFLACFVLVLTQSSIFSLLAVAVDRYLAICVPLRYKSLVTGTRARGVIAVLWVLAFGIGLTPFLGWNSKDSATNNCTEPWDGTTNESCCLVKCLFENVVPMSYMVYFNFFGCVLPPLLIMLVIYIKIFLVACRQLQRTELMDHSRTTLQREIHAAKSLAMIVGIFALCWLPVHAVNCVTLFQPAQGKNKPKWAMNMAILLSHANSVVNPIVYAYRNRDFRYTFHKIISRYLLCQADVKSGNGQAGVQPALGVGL

| Compound | Ki [1] | t1/2 [2] | Kinetic_solubility [3] | PPB [4] | further results |
| --- | --- | --- | --- | --- | --- |
| Cc1cc(C)cc(-c2nnc(N)nc2-c2ccccc2)c1 | 195 nM | 0.15 h | 20 µM | 98% | – |
| Cc1cc(-c2nnc(N)nc2-c2ccccc2)cc(C(F)(F)F)n1 | – | 1.43 h | – | 92% | clearance [5]: 42 mL/min/kg; Vd [6]: 4.6 L/kg; half-life [7]: 1.2 h; AUC(0-inf) [8]: 397 ng·h/mL; BPR [9]: 3.2; Tmax [10]: 0.4 h; Cmax [11]: 244 ng/mL; half-life [12]: 1.1 h; bioavailability [13]: 100%; Activity [14]: Dose-dependent effect; ED50 [14]: 0.2 mg/kg; Activity [15]: Dose-dependent effect; ED50 [15]: 0.2 mg/kg |
| Cc1cc(-c2nnc(N)nc2-c2ccccc2)cc(C)c1O | 16.6 nM | 1.25 h | – | 93.3% | – |
| Cc1cc(-c2nnc(N)nc2-c2cc(F)cc(F)c2)cc(C)n1 | 170 nM | 1.67 h | 45 µM | – | – |
| Nc1nnc(-c2cccc(Cl)c2)c(-c2ccccc2)n1 | – | 0.483 h | – | 97.9% | – |
| Nc1nnc(-c2ccc(O)c(Cl)c2)c(-c2ccccc2)n1 | – | 1.15 h | 45 µM | 98% | – |
| Cc1cc(-c2nnc(N)nc2-c2ccc(F)cc2)cc(C(F)(F)F)n1 | 117 nM | 1.62 h | – | 93% | – |
| Cc1cc(-c2nnc(N)nc2-c2ccccc2)cc(C)n1 | 85.1 nM | 1.67 h | 40 µM | 82.1% | INH [16]: > 10 µM; Ki [17]: 50.1 nM |
| Nc1nnc(-c2ccccc2)c(-c2ccccc2)n1 | 275 nM | 0.383 h | > 100 µM | – | – |
| Nc1nnc(-c2cc(Cl)cc(Cl)c2)c(-c2ccccc2)n1 | – | 1.8 h | – | – | INH [16]: > 10 µM |
| Cc1cc(-c2nnc(N)nc2-c2cccc(F)c2)cc(C)n1 | 110 nM | 1.3 h | – | 87% | – |
